Measurements published in US7618975B2, “4-arylamino-quinazolines and analogs as activators of caspases and inducers of apoptosis and the use thereof” (Myriad Pharmaceuticals, Inc., priority 2003, dated 2009).
pIC50: −log10 of the molar value. Counter-ions that a name gives are not always drawn.

What was measured:
T-47D cells = assay: Caspase cascade activation (N-(Ac-DEVD)-N′-ethoxycarbonyl-R110 fluorogenic substrate) in T-47D cells; type: cell-based, Human; details: T-47D, ratio of net RFU to control
[1] = system: tubulin (Cytoskeleton #ML113, MAP-rich); assay: Inhibition of tubulin polymerization (DAPI fluorescence); type: biochemical; details: 30 minutes preincubation, 30 minutes at 37° C.
Method: Lyophilized tubulin (Cytoskeleton #ML113, 1 mg, MAP-rich) was assayed for the effect of the test compound on tubulin polymerization as measured by change in fluorescence for 4′,6-diamidino-2-phenylindole (DAPI) (Barron, D. M. et al. Analytical Biochem., 2003, 315, 49-56.). 1 μl of serial dilutions of each test compound (from 100×DMSO stock) was added in 96 well plate format and preincubated for 30 minutes with 94 ul of the non-GTP supplemented tubulin supernatant. 5 μl of DAPI/GTP solution was added to initiate polymerization and incubated for 30 minutes at 37° C. Fluorescence was read with excitation 350 nm, emission wavelength 485 nm on a Tecan Spectraflour Plus. Polymerized tubulin (DMSO and with the tubulin stabilizer Taxol® (paclitaxel)) gives a higher DAPI fluorescence as compared to non-polymerized tubulin (vinblastine and colchicine used to determine baseline).

[2] = biological target: T1, Human Type II Topoisomerase (p170 Form) (Homo sapiens, UniProt P11388); assay: Photo-crosslinking of radiolabeled compound to Topoisomerase II; type: binding; details: 50 nM, 60 minutes, UV 254 nm; FIG. 3
T1 construct: purchased TopoGEN, Inc., Columbus, Ohio
Method: 30 Units (15 ul) Human Type II Topoisomerase (p170 Form) (from TopoGEN, Inc., Columbus, Ohio) was incubated with 50 nM radiolabeled Example 102 compound for 60 minutes at room temperature.
(Radiolabeled Example 102 compound stock is 16.67 uM, 60 Ci/mmol, 1 Ci/ml American Radiolabeled Chemicals, Inc., St. Louis, Mo. Samples were either UV irradiated (+) with a short wavelength UV Source (254 nm) for 10 minutes at a distance of 3.5 cm or not irradiated (−). 8 ul of 5× sample buffer (150 mM Tris, pH 6.8, 50% glycerol, 1% SDS, 50 mM dithiothreitol, 62 mg/ml bromophenol blue) was added to the samples and boiled for 5 minutes. The entire sample was then loaded onto a 6% Tris-Glycine SDS-gel (10 well, 1.5 mm thickness) (Invitrogen, Carlsbad, Calif.). The gel was stained with 1% Coomassie Brilliant Blue in 40% methanol, 7.5% acetic acid for 2 hours then de-stained in several changes of de-stainer (40% methanol, 7.5% acetic acid). The gel was then incubated in Amplify (Amersham, Piscataway, N.J.) for 30 minutes at room temperature and then dried down on Whatman filter paper at 80° C. for 2 hours on a gel dryer. The dried gel was put on Hyperfilm (Amersham) in a film cassette and placed at −80° C. for 5-7 days.

[3] = biological target: tyrosine kinase of Epidermal Growth Factor Receptor (Homo sapiens, UniProt P00533); details: Rewcastle et al. 1995; read-out: IC50 EGFR tyrosine kinase; cited from earlier work
Topoisomerase II = Topoisomerase II (Homo sapiens, UniProt P11388); assay: Topoisomerase II activity assay (relaxation of supercoiled DNA, gel); details: FIG. 1, Example 1 Compound at 100 μM
Topoisomerase I = biological target: T2, Topoisomerase I (Homo sapiens, UniProt P11387); assay: Topoisomerase I activity assay (relaxation of supercoiled DNA, gel); details: FIG. 2
T2 sequence (P11387 1-765): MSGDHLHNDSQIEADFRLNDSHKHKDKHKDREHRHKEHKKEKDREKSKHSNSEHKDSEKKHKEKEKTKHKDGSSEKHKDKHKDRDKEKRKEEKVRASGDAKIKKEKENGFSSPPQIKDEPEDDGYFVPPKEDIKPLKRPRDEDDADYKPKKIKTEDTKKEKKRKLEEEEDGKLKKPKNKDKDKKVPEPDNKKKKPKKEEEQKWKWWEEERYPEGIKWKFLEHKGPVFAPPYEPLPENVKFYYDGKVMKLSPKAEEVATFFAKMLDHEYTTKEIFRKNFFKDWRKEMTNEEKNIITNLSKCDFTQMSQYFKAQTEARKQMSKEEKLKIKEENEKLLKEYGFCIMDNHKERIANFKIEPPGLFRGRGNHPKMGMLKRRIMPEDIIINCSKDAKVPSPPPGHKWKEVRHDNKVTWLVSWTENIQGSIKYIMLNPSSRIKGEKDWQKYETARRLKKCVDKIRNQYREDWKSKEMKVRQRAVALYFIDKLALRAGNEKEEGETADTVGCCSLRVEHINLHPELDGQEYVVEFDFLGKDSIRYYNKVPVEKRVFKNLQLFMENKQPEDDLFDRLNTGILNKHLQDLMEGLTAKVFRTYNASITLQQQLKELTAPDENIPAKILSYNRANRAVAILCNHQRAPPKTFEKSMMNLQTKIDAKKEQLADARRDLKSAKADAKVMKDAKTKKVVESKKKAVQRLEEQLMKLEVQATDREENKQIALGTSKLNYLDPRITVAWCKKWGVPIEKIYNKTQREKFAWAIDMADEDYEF

tyrosine kinase of Epidermal Growth Factor Receptor, sequence (P00533 25-1210): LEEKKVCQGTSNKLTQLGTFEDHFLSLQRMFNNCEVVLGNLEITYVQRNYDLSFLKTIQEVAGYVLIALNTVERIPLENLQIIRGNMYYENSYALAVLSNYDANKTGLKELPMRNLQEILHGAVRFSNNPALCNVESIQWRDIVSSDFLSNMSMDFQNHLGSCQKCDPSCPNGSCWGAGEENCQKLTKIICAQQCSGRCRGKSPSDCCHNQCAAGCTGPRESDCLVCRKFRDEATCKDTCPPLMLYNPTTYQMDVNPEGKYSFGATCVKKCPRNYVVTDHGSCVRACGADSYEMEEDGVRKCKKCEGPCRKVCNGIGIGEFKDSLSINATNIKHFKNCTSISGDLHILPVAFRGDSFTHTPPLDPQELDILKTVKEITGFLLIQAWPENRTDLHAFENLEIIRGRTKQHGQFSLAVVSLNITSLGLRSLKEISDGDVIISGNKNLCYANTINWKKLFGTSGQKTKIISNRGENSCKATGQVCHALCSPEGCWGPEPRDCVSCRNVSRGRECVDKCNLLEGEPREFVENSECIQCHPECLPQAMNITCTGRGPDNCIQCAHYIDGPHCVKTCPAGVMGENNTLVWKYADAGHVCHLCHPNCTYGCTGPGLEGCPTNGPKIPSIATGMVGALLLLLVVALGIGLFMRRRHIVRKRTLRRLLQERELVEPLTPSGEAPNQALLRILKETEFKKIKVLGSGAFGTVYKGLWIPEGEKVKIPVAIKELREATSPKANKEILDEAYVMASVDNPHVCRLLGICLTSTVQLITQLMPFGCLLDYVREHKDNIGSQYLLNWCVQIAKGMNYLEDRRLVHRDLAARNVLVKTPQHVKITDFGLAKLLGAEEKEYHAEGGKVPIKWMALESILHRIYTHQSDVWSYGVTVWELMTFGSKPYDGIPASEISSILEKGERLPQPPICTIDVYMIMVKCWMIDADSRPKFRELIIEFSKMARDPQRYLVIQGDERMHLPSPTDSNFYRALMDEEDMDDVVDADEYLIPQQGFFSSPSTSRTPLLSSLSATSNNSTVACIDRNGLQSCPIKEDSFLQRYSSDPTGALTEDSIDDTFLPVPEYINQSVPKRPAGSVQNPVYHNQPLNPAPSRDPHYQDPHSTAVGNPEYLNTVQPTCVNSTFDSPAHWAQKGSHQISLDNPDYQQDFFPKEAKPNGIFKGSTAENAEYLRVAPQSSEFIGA
Topoisomerase II, sequence (P11388 whole entry): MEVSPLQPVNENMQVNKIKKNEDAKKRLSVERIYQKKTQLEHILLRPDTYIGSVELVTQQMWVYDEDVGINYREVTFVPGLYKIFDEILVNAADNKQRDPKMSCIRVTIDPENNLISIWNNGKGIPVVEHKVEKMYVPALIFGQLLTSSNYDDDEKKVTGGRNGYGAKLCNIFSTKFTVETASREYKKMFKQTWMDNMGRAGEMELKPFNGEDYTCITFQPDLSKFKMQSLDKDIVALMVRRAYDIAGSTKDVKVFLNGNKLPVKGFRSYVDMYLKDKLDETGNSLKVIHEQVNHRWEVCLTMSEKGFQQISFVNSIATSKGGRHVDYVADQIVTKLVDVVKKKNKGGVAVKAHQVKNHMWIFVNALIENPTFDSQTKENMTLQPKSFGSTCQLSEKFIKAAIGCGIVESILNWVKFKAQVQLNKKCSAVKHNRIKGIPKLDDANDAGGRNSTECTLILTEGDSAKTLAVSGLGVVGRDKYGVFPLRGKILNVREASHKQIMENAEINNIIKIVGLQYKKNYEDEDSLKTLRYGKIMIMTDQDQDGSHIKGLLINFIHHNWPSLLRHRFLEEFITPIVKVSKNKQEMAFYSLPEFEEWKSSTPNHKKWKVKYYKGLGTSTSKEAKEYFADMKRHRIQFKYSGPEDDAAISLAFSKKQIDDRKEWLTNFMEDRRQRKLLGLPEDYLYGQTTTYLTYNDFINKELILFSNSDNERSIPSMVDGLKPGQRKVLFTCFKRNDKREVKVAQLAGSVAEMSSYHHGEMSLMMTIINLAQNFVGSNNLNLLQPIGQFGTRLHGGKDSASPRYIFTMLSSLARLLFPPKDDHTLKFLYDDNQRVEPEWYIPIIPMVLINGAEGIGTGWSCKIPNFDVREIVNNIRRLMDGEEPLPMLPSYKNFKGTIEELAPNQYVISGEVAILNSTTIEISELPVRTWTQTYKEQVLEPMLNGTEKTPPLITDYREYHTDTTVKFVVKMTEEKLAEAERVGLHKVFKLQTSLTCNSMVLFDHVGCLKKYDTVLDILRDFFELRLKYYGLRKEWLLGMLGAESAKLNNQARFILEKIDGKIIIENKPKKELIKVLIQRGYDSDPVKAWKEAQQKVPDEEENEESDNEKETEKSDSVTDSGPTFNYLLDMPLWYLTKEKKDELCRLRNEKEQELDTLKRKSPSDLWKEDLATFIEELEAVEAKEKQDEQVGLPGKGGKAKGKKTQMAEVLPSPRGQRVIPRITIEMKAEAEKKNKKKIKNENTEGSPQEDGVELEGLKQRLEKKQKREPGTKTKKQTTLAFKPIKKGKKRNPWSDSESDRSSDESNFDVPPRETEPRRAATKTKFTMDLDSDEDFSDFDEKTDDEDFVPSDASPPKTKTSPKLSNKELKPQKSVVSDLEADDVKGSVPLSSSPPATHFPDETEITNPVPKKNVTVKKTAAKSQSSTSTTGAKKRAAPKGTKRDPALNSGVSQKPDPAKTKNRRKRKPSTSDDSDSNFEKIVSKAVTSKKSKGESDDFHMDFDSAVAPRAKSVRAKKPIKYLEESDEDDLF
T1 sequence (P11388 whole entry): as above

| pIC50 [1] | Molecule | Caspase activity Ratio T-47D (48 hr) (T-47D cells) | Caspase activity Ratio T-47D (24 hr) (T-47D cells) | further results |
| --- | --- | --- | --- | --- |
| 5.70 | COc1ccc(N(C)c2ncnc3c2CCCC3)cc1 [Example 25] | 5.8 |  |  |
| 5.52 | Cc1ccc(N(C)c2nc(Cl)nc3ccccc23)cc1 [Example 2, (2-Chloro-quinazolin-4-yl)-(4-methyl-phenyl)-methyl-amine] |  | 6.7 |  |
| 5.00 | COc1ccc(OC)c(Nc2nc(Cl)nc3ccccc23)c1 [Example 31, (2-Chloro-quinazolin-4-yl)-(2,5-dimethoxy-phenyl)-amine] | 14.7 | 8.0 |  |
|  | Radiolabeled (4-Azido-phenyl)-(2-methyl-quinazolin-4-yl)-methyl-amine [Radiolabeled Example 102 compound] |  |  | Binding to Topoisomerase II (UV crosslinking) [2]: binds sufficiently well to Topoisomerase II to crosslink to the enzyme when photoactivated |
|  | CN(c1ccccc1)c1ncnc2ccccc12 [R1═Me, R2═R3═R4═H] |  |  | pIC50 [3]: < 4.00 |
|  | COc1cc([C@@H]2c3cc4c(cc3[C@@H](O[C@@H]3O[C@@H]5CO[C@@H](C)O[C@H]5[C@H](O)[C@H]3O)[C@H]3COC(=O)[C@H]23)OCO4)cc(OC)c1O [VP-16, etoposide, reference compound] |  |  | Effect on topoisomerase I-dependent relaxation of supercoiled DNA (Topoisomerase I): no apparent effect |
| 5.22 | COc1ccc(N(C)c2nc(NC/C=C(\C)CCC=C(C)C)nc3ccccc23)cc1 [Example 13, N^2-(3,7-Dimethyl-octa-2,6-dienyl)-N^4-(4-methoxy-phenyl)-N^4-methyl-quinazoline-2,4-diamine] |  | 8.9 |  |
| 5.70 | COc1cccc(N(C)c2nc(Cl)nc3ccccc23)c1 [Example 43, (2-Chloro-quinazolin-4-yl)-(3-methoxy-phenyl)-methyl-amine] | 14.7 |  |  |
| 5.40 | Cc1ccc(N(C)c2ncnc3ccccc23)cc1 [Example 35, (4-Methyl-phenyl)-methyl-quinazolin-4-yl-amine] |  | 7.2 |  |
| < 4.30 | COc1ccc(Nc2nc(Cl)nc3ccccc23)cc1 [Example 7, (2-Chloro-quinazolin-4-yl)-(4-methoxy-phenyl)-amine] | 1.0 | 1.2 |  |
| 5.00 | COc1ccccc1N(C)c1nc(Cl)nc2ccccc12 [Example 44, (2-Chloro-quinazolin-4-yl)-(2-methoxy-phenyl)-methyl-amine] | 14.3 |  |  |
| 5.70 | COc1ccc(N(C)c2nc(N)nc3ccccc23)cc1 [Example 12, N^4-(4-Methoxy-phenyl)-N^4-methyl-quinazoline-2,4-diamine] | 12.8 | 5.3 |  |
| > 6.00 | COc1ccc(N(C)c2nc(Cl)nc3ccccc23)c(OC)c1 [Example 41, (2-Chloro-quinazolin-4-yl)-(2,4-dimethoxy-phenyl)-methyl-amine] | 12.4 |  |  |
|  | CNc1nc(N(C)c2ccc(OC)nc2)c2ccccc2n1 [Example 129, (2-Methylamino-quinazolin-4-yl)-(6-methoxy-pyridin-3-yl)-methyl-amine] |  | 10 |  |
|  | CN(c1ccc([N+](=O)[O-])cc1)c1nc(Cl)nc2ccccc12 [Example 4, (2-Chloro-quinazolin-4-yl)-(4-nitro-phenyl)-methyl-amine] |  | 7.1 |  |
| > 6.00 | COc1ccc(N(C)c2nc(Cl)nc3ccccc23)cn1 [Example 36, (2-Chloro-quinazolin-4-yl)-(6-methoxy-pyridin-3-yl)-methyl-amine] |  | 6.7 |  |
| 5.52 | COc1ccc(N(C)c2nc(Cl)nc3cc(OC)c(OC)cc23)cc1 [Example 20, (2-Chloro-6,7-dimethoxyquinazolin-4-yl)-(4-methoxy-phenyl)-methyl-amine] |  | 13.1 |  |
|  | COc1ccc(N(C)c2nc(C)nc3ccc([N+](=O)[O-])cc23)cc1 [Example 109, (4-Methoxy-phenyl)-(2-methyl-6-nitro-quinazolin-4-yl)-methyl-amine] |  | 4.6 |  |
| 5.30 | COc1ccc(OC)c(N(C)c2nc(Cl)nc3ccccc23)c1 [Example 42, (2-Chloro-quinazolin-4-yl)-(2,5-dimethoxy-phenyl)-methyl-amine] | 14.6 | 8.6 |  |
|  | CN(c1ccc2c(c1)OCO2)c1nc(Cl)nc2ccccc12 [Example 67, (2-Chloro-quinazolin-4-yl)-(3,4-methylenedioxyphenyl)-methyl-amine] | 12.5 |  |  |
| 5.00 | COc1ccc(N(C)c2nccc3ccccc23)cc1 [Example 65, (Isoquinolin-1-yl)-(4-methoxy-phenyl)-methyl-amine] | 13.7 |  |  |
|  | COc1ccc(N(C)c2nc(NCCO)nc3ccccc23)cc1 [Example 11, N^2-(2-Hydroxylethyl)-N^4-(4-methoxy-phenyl)-N^4-methyl-quinazoline-2,4-diamine] | 12.5 | 9.0 |  |
|  | CCCOc1ccc(N(C)c2nc(Cl)nc3ccccc23)cc1 [Example 70, (2-Chloro-quinazolin-4-yl)-(4-propoxy-phenyl)-methyl-amine] | 11.3 |  |  |
|  | COc1ccc(N(C)c2nc(C)nc3cc([N+](=O)[O-])ccc23)cc1 [Example 112, (4-Methoxy-phenyl)-methyl-(2-methyl-7-nitro-quinazolin-4-yl)-amine] |  | 1.0 |  |
|  | COc1cc2nc(Cl)nc(N(C)c3ccc(C)cc3)c2cc1OC [Example 22, (2-Chloro-6,7-dimethoxyquinazolin-4-yl)-(4-methyl-phenyl)-methyl-amine] | 1.0 | 1.0 |  |

| Molecule | pIC50 [1] | Caspase activity Ratio T-47D (48 hr) (T-47D cells) | Caspase activity Ratio T-47D (24 hr) (T-47D cells) | further results |
| --- | --- | --- | --- | --- |
| COc1ccc(N(C)c2nc(Cl)nc3ccccc23)cc1 [Example 1] | > 6.30 |  | 8.7 | Inhibition of topoisomerase II-dependent relaxation of supercoiled DNA (Topoisomerase II): inhibition of DNA relaxation is substantial; Effect on topoisomerase I-dependent relaxation of supercoiled DNA (Topoisomerase I): no apparent effect |
| CN(c1ccccc1)c1nc(Cl)nc2ccccc12 [Example 6, (2-Chloro-quinazolin-4-yl)-phenyl-methyl-amine] | 5.40 |  | 6.7 |  |
| COc1ccc(N(C)c2nc(C)nc3ccccc23)cc1 [Example 72, (4-Methoxy-phenyl)-methyl-(2-methyl-quinazolin-4-yl)-amine hydrochloride] | > 6.00 | 7.4 | 9.0 |  |
